# Laboratory results taken from publication PMC8058344, “ARIH1 signaling promotes anti-tumor immunity by targeting PD-L1 for proteasomal degradation” (Nature Communications, 2021).
# System: GSK3α
# Test: Immunoblots of p-GSK3α in H1975 cells
# Assay type: cell-based, human
# Conditions: 10 μM, 24 h, compared to Gefitinib and AZD9291
# Experimental: For western blot analysis, cells were collected and washed with PBS, then lysed in radioimmunoprecipitation assay (RIPA) buffer (1% Triton X-100, 100 mM Tris-HCl pH 8.8, 100 mM NaCl, 0.5 mM EDTA). After incubation on ice for 30 min, the lysates were centrifuged at 12,000 × g for 10 min at 4 °C. The supernatant was collected and the protein concentration was measured by bicinchoninic acid reaction. Protein samples were added with 2× loading buffer and heated at 100 °C for 10 min, separated with SDS-polyacrylamide gel electrophoresis (SDS-PAGE), transferred onto polyvinylidene difluoride membranes, and blocked with 5% non-fat milk in Phosphate Buffered Saline with 0.1% Tween-20 (PBST) for 1 h at room temperature. The membranes were probed with the corresponding primary antibodies at 4 °C overnight and horseradish peroxidase-conjugated secondary antibodies at room temperature for 1 h. Signals were detected using chemiluminescence reagents (#4AW001-500, 4A649 Biotech, Co.).
# Flag-EV Flag-PD-L1 Flag-EV Flag-PD-L1
# 43 Flag-PD-L1-TM Flag-PD-L1-TM
# GSK3 concenseus phosphorylation motif:S/TXXX S/T EGFR 180 […]
# Supplementary Figure 4. […] Quantification for the mean area (MA) of PD-L1/GSK3α (n = 50) or PD-L1/GSK3β (n = 44-50) PLA speckles are indicated by scattergram. […]
structure (smiles),measurement,value
C=CC(=O)Nc1cccc(Nc2nc(Nc3ccc(N4CCN(C)CC4)nc3OC)ncc2C(F)(F)F)c1 [ES-072],activation effect on GSK3α (loss of the inhibitory phosphorylation of GSK3α),higher activation effect
